# Test results taken from PMC3599558, “Profiling of hepatic clearance pathways of Pittsburgh compound B and human liver cytochrome p450 phenotyping” (EJNMMI Research, 2013).
# Entries after “also recorded” stand apart in the source; their conditions may differ.
# What was measured:
# serotonin 5HT1A receptor = system: serotonin 5HT1A receptor; parameters: method as in PMID 17574977; settings: inhibitor of CYP2E1; cited from earlier work
# rhCYP1A2 = target: T1, rhCYP1A2 (Homo sapiens, UniProt P05177); experiment: Incubation with recombinantly expressed CYP1A2; assay type: in vitro ADME
# T1 construct: purchased BD Gentest (Woburn, MA, USA); host or cells: Baculovirus transfected insect cell system
# T1 sequence (P05177 1-516): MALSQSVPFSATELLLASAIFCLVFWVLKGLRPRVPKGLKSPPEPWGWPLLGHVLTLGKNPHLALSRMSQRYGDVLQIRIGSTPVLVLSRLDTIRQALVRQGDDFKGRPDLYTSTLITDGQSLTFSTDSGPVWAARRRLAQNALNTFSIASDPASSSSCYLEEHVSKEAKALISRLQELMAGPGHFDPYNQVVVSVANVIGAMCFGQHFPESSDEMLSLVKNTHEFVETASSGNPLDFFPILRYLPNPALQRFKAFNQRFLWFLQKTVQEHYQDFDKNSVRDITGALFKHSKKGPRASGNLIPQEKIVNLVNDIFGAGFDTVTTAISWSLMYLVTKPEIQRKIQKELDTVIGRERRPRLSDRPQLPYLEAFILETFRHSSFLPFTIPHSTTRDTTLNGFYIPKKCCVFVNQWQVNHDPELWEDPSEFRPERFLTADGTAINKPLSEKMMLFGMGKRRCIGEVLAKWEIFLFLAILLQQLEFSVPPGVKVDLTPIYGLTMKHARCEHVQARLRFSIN
# Protocol: (§1) After a 10 min preincubation at 37°C, the reaction was initiated by addition of 2.0 mM NADPH and incubated for 15 and 60 min. The reactions were terminated by the addition of two volumes of DMSO. Samples were subsequently centrifuged at 4,000 rpm for 10 min. From the resulting supernatant, 10 μL was analysed by liquid chromatography/tandem mass spectrometry (LC-MS/MS). […] Quantification was performed on a TSQ-Vantage instrument (Thermofisher Scientific, Bremen, Germany), fitted with an electrospray ionization source. […] Elution was performed on a Waters XBridge C18 column (3 × 2.1 mm, 2.5 μm; Waters, Boston MA, USA). Solvents A (0.1% formic acid in water) and B (0.1% formic acid in acetonitrile) were used at a flow rate of 500 μL/min. […] The final ratio was held for a further 0.6 min and then reduced again to 5% B over 0.05 min. Data was processed using QuickQuan (Thermofisher Scientific, Bremen, Germany).
# rhCYP 2C9 = target: T2, rhCYP 2C9 (Homo sapiens, UniProt P11712); experiment: Incubation with recombinantly expressed CYP2C9; assay type: in vitro ADME
# T2 construct: purchased BD Gentest (Woburn, MA, USA); host or cells: Baculovirus transfected insect cell system
# Protocol: as §1
# rhCYP 2C19 = target: T3, rhCYP 2C19 (Homo sapiens, UniProt P33261); experiment: Incubation with recombinantly expressed CYP2C19; assay type: in vitro ADME
# T3 construct: purchased BD Gentest (Woburn, MA, USA); host or cells: Baculovirus transfected insect cell system
# Protocol: as §1
# rhCYP 2D6 = target: T4, rhCYP 2D6 (Homo sapiens, UniProt P10635); experiment: Incubation with recombinantly expressed CYP2D6; assay type: in vitro ADME
# T4 construct: purchased BD Gentest (Woburn, MA, USA); host or cells: Baculovirus transfected insect cell system
# Protocol: as §1
# rhCYP 3A4 = target: T5, rhCYP 3A4 (Homo sapiens, UniProt P08684); experiment: Incubation with recombinantly expressed CYP3A4; assay type: in vitro ADME
# T5 construct: purchased BD Gentest (Woburn, MA, USA); host or cells: Baculovirus transfected insect cell system
# Protocol: as §1
# [1] = Human liver microsomal metabolism (no inhibitor); assay type: in vitro ADME; settings: HLM incubations from phenotyping experiments, qualitative LC/MS
# Protocol: (§2) After a 10 min preincubation at 37°C, the reaction was initiated by addition of 0.15 mM NADP and further incubated for either 15 or 60 min. The reactions were terminated by the addition of two volumes DMSO. Samples were subsequently centrifuged at 4,000 rpm for 10 min. From the resulting supernatant, 10 μL was analyzed by LC-MS/MS.
# (§3) Quantification was performed on a TSQ-Vantage instrument (Thermofisher Scientific, Bremen, Germany), fitted with an electrospray ionization source. […] Elution was performed on a Waters XBridge C18 column (3 × 2.1 mm, 2.5 μm; Waters, Boston MA, USA). Solvents A (0.1% formic acid in water) and B (0.1% formic acid in acetonitrile) were used at a flow rate of 500 μL/min. […] The final ratio was held for a further 0.6 min and then reduced again to 5% B over 0.05 min. Data was processed using QuickQuan (Thermofisher Scientific, Bremen, Germany).
# Qualitative high resolution LC/MS data was acquired on a Waters Premier hybrid quadrupole time-of-flight (QToF) mass spectrometer (Waters, Boston MA, USA) equipped with a liquid chromatography system, using a 10 min gradient method and an Acquity UPLC BEH C18 (2.1 × 100 mm, 1.7 μm) column (Waters, Boston MA). The QToF Premier operated with a cone voltage of 30 eV and collision energy of 30 eV. […] The final ratio was held for 2 min and then reduced again to 5% B over 1 min. […]
# [2] = Human liver microsomal metabolism in the presence of cytochrome P450 diagnostic inhibitors; assay type: in vitro ADME; settings: PiB 1.0 μM, 60 min
# Protocol: as §2, §3
# Qualitative high resolution LC/MS data was acquired on a Waters Premier hybrid quadrupole time-of-flight (QToF) mass spectrometer (Waters, Boston MA, USA) equipped with a liquid chromatography system, using a 10 min gradient method and an Acquity UPLC BEH C18 (2.1 × 100 mm, 1.7 μm) column (Waters, Boston MA). The QToF Premier operated with a cone voltage of 30 eV and collision energy of 30 eV. […] The final ratio was held for 2 min and then reduced again to 5% B over 1 min. Interpretation of data was performed with Metabolynx software (Waters, Boston, MA, USA).
# [3] = system: rhCYPs 1A2, 2C9, 2C19, 2D6, and 3A4; experiment: Metabolite profiling of rhCYP incubations; assay type: in vitro ADME, human; settings: qualitative LC/MS
# Protocol: After a 10 min preincubation at 37°C, the reaction was initiated by addition of 2.0 mM NADPH and incubated for 15 and 60 min. The reactions were terminated by the addition of two volumes of DMSO. Samples were subsequently centrifuged at 4,000 rpm for 10 min. From the resulting supernatant, 10 μL was analysed by liquid chromatography/tandem mass spectrometry (LC-MS/MS). Control experiments were performed by substituting the active enzyme preparation by insect cell preparations containing no rhCYP.
# Qualitative high resolution LC/MS data was acquired on a Waters Premier hybrid quadrupole time-of-flight (QToF) mass spectrometer (Waters, Boston MA, USA) equipped with a liquid chromatography system, using a 10 min gradient method and an Acquity UPLC BEH C18 (2.1 × 100 mm, 1.7 μm) column (Waters, Boston MA). The QToF Premier operated with a cone voltage of 30 eV and collision energy of 30 eV. The gradient employed was 95% solvent A (25 mM ammonium acetate, pH = 9) as the start condition followed by a linear ramp of organic phase concentration from 5% B (25 mM ammonium acetate/MeOH/acetonitrile 10/10/80) to 95% B over 6.5 min. The final ratio was held for 2 min and then reduced again to 5% B over 1 min. Interpretation of data was performed with Metabolynx software (Waters, Boston, MA, USA).
# [4] = PiB 1.0 μM, rhCYP 100 pmol/mL, 15 and 60 min
# [5] = scaled for approximate relative abundances of CYP isoforms in human liver [10]
# T5 sequence (P08684 whole entry): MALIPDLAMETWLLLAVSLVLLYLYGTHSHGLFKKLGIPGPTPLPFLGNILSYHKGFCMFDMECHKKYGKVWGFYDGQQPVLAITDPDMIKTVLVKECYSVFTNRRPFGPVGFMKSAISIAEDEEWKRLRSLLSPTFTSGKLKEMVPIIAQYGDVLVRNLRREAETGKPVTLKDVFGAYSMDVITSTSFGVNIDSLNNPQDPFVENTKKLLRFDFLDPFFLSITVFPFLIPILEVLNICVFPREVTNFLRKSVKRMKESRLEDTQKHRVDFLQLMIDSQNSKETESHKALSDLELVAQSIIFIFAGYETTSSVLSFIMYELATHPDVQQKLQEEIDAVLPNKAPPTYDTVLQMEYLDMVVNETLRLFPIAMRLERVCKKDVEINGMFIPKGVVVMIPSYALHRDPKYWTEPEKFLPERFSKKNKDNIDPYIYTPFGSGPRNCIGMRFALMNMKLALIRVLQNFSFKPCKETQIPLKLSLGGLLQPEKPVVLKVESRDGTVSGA
# T2 sequence (P11712 whole entry): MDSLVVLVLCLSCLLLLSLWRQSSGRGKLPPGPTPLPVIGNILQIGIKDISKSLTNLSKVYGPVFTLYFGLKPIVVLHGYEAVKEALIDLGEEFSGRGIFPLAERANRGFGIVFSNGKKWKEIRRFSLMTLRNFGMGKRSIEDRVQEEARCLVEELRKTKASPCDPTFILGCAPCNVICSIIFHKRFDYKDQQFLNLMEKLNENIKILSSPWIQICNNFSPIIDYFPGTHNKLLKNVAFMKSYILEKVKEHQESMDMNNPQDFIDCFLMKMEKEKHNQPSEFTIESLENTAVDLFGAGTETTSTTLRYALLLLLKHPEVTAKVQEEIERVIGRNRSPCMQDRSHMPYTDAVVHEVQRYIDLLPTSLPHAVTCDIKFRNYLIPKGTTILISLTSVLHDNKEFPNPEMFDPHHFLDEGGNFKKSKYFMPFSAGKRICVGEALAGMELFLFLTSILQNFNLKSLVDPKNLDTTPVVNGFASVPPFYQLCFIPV
# T4 sequence (P10635 whole entry): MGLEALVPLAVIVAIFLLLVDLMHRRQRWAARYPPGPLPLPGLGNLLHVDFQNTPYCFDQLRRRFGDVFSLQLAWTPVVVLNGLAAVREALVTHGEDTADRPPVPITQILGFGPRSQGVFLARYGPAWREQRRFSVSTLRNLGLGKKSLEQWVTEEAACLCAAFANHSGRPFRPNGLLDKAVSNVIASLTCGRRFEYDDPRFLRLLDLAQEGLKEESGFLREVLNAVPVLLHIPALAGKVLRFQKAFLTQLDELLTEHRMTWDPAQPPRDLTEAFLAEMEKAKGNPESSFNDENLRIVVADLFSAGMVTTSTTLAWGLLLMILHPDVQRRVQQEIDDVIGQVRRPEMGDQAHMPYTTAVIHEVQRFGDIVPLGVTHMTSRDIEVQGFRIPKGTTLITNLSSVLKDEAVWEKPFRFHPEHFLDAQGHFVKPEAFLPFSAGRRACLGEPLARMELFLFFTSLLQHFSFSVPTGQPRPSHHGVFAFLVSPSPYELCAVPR
# T3 sequence (P33261 whole entry): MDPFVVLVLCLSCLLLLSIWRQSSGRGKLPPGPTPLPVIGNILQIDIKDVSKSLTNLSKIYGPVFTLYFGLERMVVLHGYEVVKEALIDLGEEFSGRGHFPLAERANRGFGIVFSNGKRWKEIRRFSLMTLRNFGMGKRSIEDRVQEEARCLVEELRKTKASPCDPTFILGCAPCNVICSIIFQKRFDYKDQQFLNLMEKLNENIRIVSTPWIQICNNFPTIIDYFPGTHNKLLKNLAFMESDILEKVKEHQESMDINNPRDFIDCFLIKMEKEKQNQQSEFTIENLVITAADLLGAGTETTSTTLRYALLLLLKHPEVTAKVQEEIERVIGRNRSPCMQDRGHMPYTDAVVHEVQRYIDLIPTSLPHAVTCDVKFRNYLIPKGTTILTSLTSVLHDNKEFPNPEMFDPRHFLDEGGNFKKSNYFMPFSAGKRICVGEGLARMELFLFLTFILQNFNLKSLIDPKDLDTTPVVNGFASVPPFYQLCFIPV
observed turnover with rhCYP1A2 (rhCYP1A2; [4]),contribution of CYP1A2 to metabolism after scaling (rhCYP1A2; [5]),observed turnover with rhCYP2C9 (rhCYP 2C9; [4]),contribution of CYP2C9 to metabolism after scaling (rhCYP 2C9; [5]),observed turnover with rhCYP2C19 (rhCYP 2C19; [4]),contribution of CYP2C19 to metabolism after scaling (rhCYP 2C19; [5]),observed turnover with rhCYP2D6 (rhCYP 2D6; [4]),contribution of CYP2D6 to metabolism after scaling (rhCYP 2D6; [5]),observed turnover with rhCYP3A4 (rhCYP 3A4; [4]),contribution of CYP3A4 to metabolism after scaling (rhCYP 3A4; [5]),drug-related species detected in HLM [1],change in HLM turnover with inhibitor of CYP1A2 ([2]; alpha-naphthoflavone 3 μM),change in HLM turnover with inhibitor of CYP2C19 ([2]; benzylphenobarbital 1 μM),change in HLM turnover with inhibitor of CYP3A4 ([2]; ketoconazole 1 μM),change in HLM turnover with inhibitor of CYP2D6 ([2]; quinidine 3 μM),change in HLM turnover with inhibitor of CYP2C9 ([2]; sulfaphenazole 10 μM),drug-related species observed in rhCYP incubations [3],Compound,metabolism after pretreatment with disulfuram (serotonin 5HT1A receptor)
,,,,,,,,,,,,,,,,,COc1ccccc1N1CCN(CCN(C(=O)C2CCC(F)CC2)c2ccccn2)CC1 (stereo not drawn) [FCWAY],significantly reduced
substrate; also recorded: high turnover,primarily metabolized,substrate,primarily metabolized,substrate,only minor contributions,substrate,only minor contributions,substrate; also recorded: high turnover,primarily metabolized,desmethyl metabolite,significant reduction,reduction in turnover is also apparent,significant reduction,reduction in turnover is also apparent,reduction in turnover is also apparent,desmethyl metabolite,CNc1ccc(-c2nc3ccc(O)cc3s2)cc1 [PiB],
